In article PMC9983021, “Novel GluN2B-Selective NMDA Receptor Negative Allosteric Modulator Possesses Intrinsic Analgesic Properties and Enhances Analgesia of Morphine in a Rodent Tail Flick Pain Model” (ACS Chemical Neuroscience, 2023):

What was measured:
Experiment in all cases: Radioligand binding assay (NIMH PDSP)
Alpha1A (α1A) = biological target: T1, Alpha1A (α1A) (Homo sapiens, UniProt P35348)
T1 sequence (P35348 1-466): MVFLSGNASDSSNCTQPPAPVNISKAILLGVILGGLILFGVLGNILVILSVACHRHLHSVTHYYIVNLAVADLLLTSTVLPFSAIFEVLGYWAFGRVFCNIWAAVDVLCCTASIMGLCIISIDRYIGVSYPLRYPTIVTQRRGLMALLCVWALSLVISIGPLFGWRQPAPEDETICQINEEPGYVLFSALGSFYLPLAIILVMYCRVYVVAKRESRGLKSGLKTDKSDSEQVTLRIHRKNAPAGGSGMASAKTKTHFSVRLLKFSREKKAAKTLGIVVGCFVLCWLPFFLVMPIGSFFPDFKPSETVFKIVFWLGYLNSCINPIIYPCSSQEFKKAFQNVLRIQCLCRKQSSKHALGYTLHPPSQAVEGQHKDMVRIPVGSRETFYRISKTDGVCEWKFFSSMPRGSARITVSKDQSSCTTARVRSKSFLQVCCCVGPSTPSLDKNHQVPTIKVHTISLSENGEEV
Experimental: (§1) Compound EU93-108 was also tested for inhibition of binding of probes to a range of GPCRs and other targets (Table 4 and Supporting Table S4). […] EU93-108 produced significant displacement of binding probes for the 5-HT2 receptors and α-1-adrenergic receptors, as well as D3, H1, and σ1 receptors. Concentration–response binding competition curves for these targets were used to determine Ki values (Table 4). Given that the brain concentration of EU93-108 achieved 30 min post i.p. injection is 18 μM (Figure 6), the doses that yield our desired antinociceptive effects may engage some of the receptors listed in Table 4.
(§2) Conventional competition and saturation radioligand binding assays were used to determine the affinities of reference standards and EU93-108. Experiments were carried out by the NIMH Psychoactive Drug Screening Program (PDSP) and were performed as previously described.[123]
(§3) The detailed experimental protocols for the radioligand assays are available on the NIMH PDSP website at https://pdsp.unc.edu/pdspweb/content/UNC-CH%20Protocol%20Book.pdf.
(§4) Receptor Mean % Receptor Mean % Receptor Mean %
(§5) Inhibition Inhibition Inhibition
(§6) Supplemental Table S4. Off-Target Actions of EU93-108: Primary GPCR Screen. Cloned human molecular targets were individually expressed and submitted to molecular target-based screening with initial screens performed at a final concentration of 10 µM in quadruplicate. Complete protocols for the assays have been previously published (Besnard J et al. 2012). Where inhibition greater than 50% was measured, secondary screens were performed wherein Ki values were calculated (see Table 4).

Alpha2C (α2C) = biological target: T2, Alpha2C (α2C) (Homo sapiens, UniProt P18825)
T2 sequence (P18825 1-462): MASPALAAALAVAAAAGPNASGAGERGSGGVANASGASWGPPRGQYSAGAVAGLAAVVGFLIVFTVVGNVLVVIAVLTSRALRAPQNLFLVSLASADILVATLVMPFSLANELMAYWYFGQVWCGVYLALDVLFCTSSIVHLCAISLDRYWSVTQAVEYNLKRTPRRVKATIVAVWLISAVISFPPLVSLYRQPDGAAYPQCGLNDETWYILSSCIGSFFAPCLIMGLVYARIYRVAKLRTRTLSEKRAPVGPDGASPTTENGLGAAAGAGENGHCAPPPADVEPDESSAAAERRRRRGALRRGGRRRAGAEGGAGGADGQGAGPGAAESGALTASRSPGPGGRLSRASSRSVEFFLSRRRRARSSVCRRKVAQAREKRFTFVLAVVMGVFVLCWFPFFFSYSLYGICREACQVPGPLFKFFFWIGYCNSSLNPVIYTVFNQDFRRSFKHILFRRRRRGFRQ
Experimental: as §1, §2, §3, §4, §5, §6

Alpha2B (α2B) = biological target: T3, Alpha2B (α2B) (Homo sapiens, UniProt P18089)
T3 sequence (P18089 1-450): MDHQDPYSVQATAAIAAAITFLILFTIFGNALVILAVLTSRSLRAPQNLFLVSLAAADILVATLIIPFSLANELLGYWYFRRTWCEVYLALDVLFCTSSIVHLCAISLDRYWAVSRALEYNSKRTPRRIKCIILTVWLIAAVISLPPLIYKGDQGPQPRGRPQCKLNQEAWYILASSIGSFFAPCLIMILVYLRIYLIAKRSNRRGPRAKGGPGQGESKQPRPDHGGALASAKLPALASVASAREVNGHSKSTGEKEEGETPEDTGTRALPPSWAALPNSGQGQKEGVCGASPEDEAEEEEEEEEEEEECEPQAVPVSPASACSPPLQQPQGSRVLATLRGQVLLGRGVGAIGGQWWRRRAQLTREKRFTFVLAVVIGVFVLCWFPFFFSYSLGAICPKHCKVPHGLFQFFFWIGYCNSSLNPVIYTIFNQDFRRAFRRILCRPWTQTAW
Experimental: as §1, §2, §3, §4, §5, §6

5-HT2C = biological target: T4, 5-HT2C (Homo sapiens, UniProt P28335)
T4 sequence (P28335 33-458): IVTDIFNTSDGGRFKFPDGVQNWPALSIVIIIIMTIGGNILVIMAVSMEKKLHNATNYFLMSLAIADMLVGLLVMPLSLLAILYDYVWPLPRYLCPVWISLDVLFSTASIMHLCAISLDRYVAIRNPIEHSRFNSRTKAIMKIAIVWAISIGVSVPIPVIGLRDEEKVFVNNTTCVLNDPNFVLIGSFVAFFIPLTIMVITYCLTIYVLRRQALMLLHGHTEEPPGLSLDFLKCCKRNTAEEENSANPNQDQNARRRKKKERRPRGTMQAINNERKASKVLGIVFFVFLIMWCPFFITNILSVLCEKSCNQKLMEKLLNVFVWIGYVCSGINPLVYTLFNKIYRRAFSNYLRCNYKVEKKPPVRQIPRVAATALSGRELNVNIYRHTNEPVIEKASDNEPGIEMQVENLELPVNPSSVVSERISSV
Experimental: as §1, §2, §3, §4, §5, §6

[1] = primary screen, 10 µM, quadruplicate
[2] = ratio of Ki to the IC50 for EU93-108 (555 nM) at GluN2B
[3] = secondary screen, binding competition curve

With `CS(=O)(=O)Nc1ccc(OC[C@@H](O)CN2CCN(c3ccc(F)c(F)c3)CC2)cc1` [EU93-108, (S)-N-(4-(3-(4-(3,4-Difluorophenyl)piperazin-1-yl)-2-hydroxypropoxy)phenyl)methanesulfonamide] the inhibition at 10 µM (Alpha1A (α1A); [1]) was 86.3%, the “Ki/IC50 of EU93-108” value (Alpha1A (α1A); [2]) was 0.31 and the Ki (Alpha1A (α1A); [3]) was 170 nM. For the same compound, the inhibition at 10 µM (Alpha2C (α2C); [1]) was 63%, the “Ki/IC50 of EU93-108” value (Alpha2C (α2C); [2]) was 1.55 and the Ki (Alpha2C (α2C); [3]) was 862 nM. For the same compound, the inhibition at 10 µM (Alpha2B (α2B); [1]) was 68%, the “Ki/IC50 of EU93-108” value (Alpha2B (α2B); [2]) was 1.31 and the Ki (Alpha2B (α2B); [3]) was 728 nM. The inhibition at 10 µM (5-HT2C; [1]) was 71.3%, the “Ki/IC50 of EU93-108” value (5-HT2C; [2]) was 3.28 and the Ki (5-HT2C; [3]) was 1820 nM.
